Results as given in PMC4038399, “Experimental validation of [sequence]^comb virtual ligand screening results for eight proteins yields novel nanomolar and micromolar binders” (Journal of Cheminformatics, 2014).
pKd: −log10 of the molar value. Converted amounts (≈) assume the structure as drawn. Like-named read-outs stand apart in the source and are kept apart here.

How the values were obtained:
[1] = biological target: E. coli dihydrofolate reductase (DHFR) (Escherichia coli, UniProt P0ABQ4); test: biochemical; assay type: binding; settings: for Q (quality score): ratio ΔFmelt/ΔFtotal of the melting curve; for ΔTm: thermal shift, in °C (unit assumed)
Description: High throughput thermal shift assays were carried out following established guidelines (Additional file 1: Table S1). Protein melting curves were obtained from samples aliquoted in 96-well plates using a RealPlex quantitative PCR instrument from Eppendorf (Eppendorf, NY, USA), with Sypro orange dye from Invitrogen as the fluorescent probe. A uniform final concentration of 5 X (supplied as a 5000 X stock solution) was used in all experiments. […] For standardization, different buffers and pH were checked. Thereafter, 100 mM HEPES pH 7.3 and 150 mM NaCl were used in all unfolding experiments. The volume of each reaction was 20 μl, and appropriate dye and protein controls were included. All experiments were done with a minimum of two replicates, with the mean value considered for further analysis. Several drugs/small molecules interact with Sypro orange and lead to aberrant signal enhancements. An additional control to rule out drug-dye interaction was carried out with all the constituents kept constant except for the protein of interest. The protein/protein-drug curves were reported after subtracting the respective dye alone/drug-dye curves.
(§1) Each melting curve was assigned a quality score (Q), the ratio of the melting-associated increase in fluorescence (ΔFmelt) to the total fluorescence range (ΔFtotal). Q = 1 is a high-quality curve, while Q = 0 indicates no thermal transition. Though an arbitrary Q value cutoff was not applied to judge curve quality, the curves were manually curated with Q values reported.
(§2) Subsequent to standardization, (see SI Methods), the validity of the top 1% of […]^comb’s predictions on the test set of eight diverse proteins was examined. To be conservative, we focused only on those protein/ligand pairs showing single sigmoidal thermal transition curves. The fit to Boltzmann’s equation (Eq. 1) was employed to estimate the melting temperature from the observed intensity, I.
(§3) (4) I=Imin+Imax-Imin/1+e^Tm-T/a
(§4) Imin and Imax are the minimum and maximum intensities; a denotes the slope of the curve at the transition midpoint temperate, Tm. To estimate thermodynamic parameters, both van’t Hoff and Gibbs-Helmholtz analyses were done. To estimate the approximate ligand-binding affinity at Tm, Eq. (2) from reference was used with slight modifications; ΔCp is ignored.
(§5) (5) KLTm=exp-ΔH/R1/Tm-1/To/L
(§6) KL(Tm) is the ligand association constant and [L] is the free ligand concentration at Tm ([LTm] ~ [L]total, when [L]total > > the total concentration of protein. KD is the inverse of KL(Tm).
(§7) Thermal unfolding of the eight benchmark proteins was carried out in a 20 μl reaction mix with 100 mM HEPES pH 7.3, 150 mM NaCl, 5 X Sypro orange dye, 10 μM protein and 1 mM of all the predicted ligands.

[2] = biological target: T1, 1000006: catalytic domain of protein tyrosine phosphatase (2G59) (Homo sapiens, UniProt Q16827); test: Thermal shift (thermal melt) assay, Sypro orange; assay type: binding, H. sapiens
T1 construct: the catalytic domain of PTP from H. sapiens (PDB ID: 2G59) (1000006); New York structural genomics consortium (gift)
T1 sequence (Q16827 938-1195 limits assumed): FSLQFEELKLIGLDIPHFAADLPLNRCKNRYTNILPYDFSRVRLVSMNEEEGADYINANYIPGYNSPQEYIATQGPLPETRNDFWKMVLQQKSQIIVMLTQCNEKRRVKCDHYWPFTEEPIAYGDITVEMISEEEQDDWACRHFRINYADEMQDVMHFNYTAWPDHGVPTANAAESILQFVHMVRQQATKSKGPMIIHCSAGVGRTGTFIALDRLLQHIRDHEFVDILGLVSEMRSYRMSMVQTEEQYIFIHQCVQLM
Description: (§8) High throughput thermal shift assays were carried out following established guidelines (Additional file 1: Table S1). Protein melting curves were obtained from samples aliquoted in 96-well plates using a RealPlex quantitative PCR instrument from Eppendorf (Eppendorf, NY, USA), with Sypro orange dye from Invitrogen as the fluorescent probe. A uniform final concentration of 5 X (supplied as a 5000 X stock solution) was used in all experiments. The dye was excited at 465 nm and emission recorded at 580 nm using the instrument’s filters. A heating ramp of 1°C/min from 25°C to 74°C was used, and one data point acquired for each degree increment. For standardization, different buffers and pH were checked. Thereafter, 100 mM HEPES pH 7.3 and 150 mM NaCl were used in all unfolding experiments. The volume of each reaction was 20 μl, and appropriate dye and protein controls were included. All experiments were done with a minimum of two replicates, with the mean value considered for further analysis. Several drugs/small molecules interact with Sypro orange and lead to aberrant signal enhancements. An additional control to rule out drug-dye interaction was carried out with all the constituents kept constant except for the protein of interest. The protein/protein-drug curves were reported after subtracting the respective dye alone/drug-dye curves.
as §1, with “reported. […] These were ignored (see Table 1).” for “reported.”
as §2, §3, §4, §5, §6, §7

[3] = biological target: T2, 1000001: Carboxy-terminus phosphatase domain of protein tyrosine phosphatase (2NV5) (Mus musculus, UniProt Q64487); test: Thermal shift (thermal melt) assay, Sypro orange; assay type: binding, M. musculus; parameters: key to Q (quality score): Q = ΔFmelt/ΔFtotal; 1 = high-quality curve, 0 = no transition; settings: for Q (quality score): ratio ΔFmelt/ΔFtotal
T2 construct: The C-terminal phosphatase domain from R. norvegicus (PDB ID: 2NV5) (1000001); New York structural genomics consortium (gift)
T2 sequence (Q64487 1331-1621): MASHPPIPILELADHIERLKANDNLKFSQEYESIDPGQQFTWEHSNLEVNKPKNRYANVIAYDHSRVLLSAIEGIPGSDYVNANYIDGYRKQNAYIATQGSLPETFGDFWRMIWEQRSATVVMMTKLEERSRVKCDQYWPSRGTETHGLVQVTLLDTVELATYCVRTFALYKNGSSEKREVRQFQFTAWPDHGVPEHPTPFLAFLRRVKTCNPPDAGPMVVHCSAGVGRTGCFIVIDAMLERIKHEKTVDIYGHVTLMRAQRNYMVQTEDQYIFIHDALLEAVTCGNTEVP
Description: as §8
as §1, with “reported. […] These were ignored (see Table 1).” for “reported.”
as §2, §3, §4, §5, §6, §7

[4] = test system: HCT-116 colon carcinoma cell line; test: Cytotoxic assay on cancer cell line; assay type: cell-based; settings: Homo sapiens, HCT-116, inhibitory concentration for 50% growth inhibition; read-out: HCT-116 (IC-50)
Description: Antimicrobial and anti-cancer tests were performed as in [80].

[5] = Table S3, computed from the thermal shifts obtained, read-out: KD (Approx)
[6] = Table S4, protein 1000001, computed from the thermal shifts obtained, read-out: KD (Approx)
[7] = Table S6, 1000001, known binders of 1000001, in °C (unit assumed)
[8] = Table S6, known binders of 1000001 tested on 1000006, in °C (unit assumed)
[9] = Table S4, protein 1000001, in °C (unit assumed)

Chain of E. coli dihydrofolate reductase (DHFR) (P0ABQ4 whole entry): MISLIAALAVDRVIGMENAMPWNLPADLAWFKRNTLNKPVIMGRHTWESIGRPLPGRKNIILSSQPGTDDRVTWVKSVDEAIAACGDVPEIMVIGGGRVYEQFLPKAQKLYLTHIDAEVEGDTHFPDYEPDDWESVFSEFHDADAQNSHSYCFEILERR

pKd [3, 6]	Q (quality score) ([3]; Table S4, protein 1000001)	ΔTm [3, 7]	ΔTm [2, 8]	Structure (SMILES)	pKd [1, 5]	Q (quality score) ([1]; Table S3)	also measured
~6.39	0.01	11.33	1.36	NS(=O)(=O)c1ccc(N=Nc2c(O)c(C(=O)O)cc3ccccc23)cc1 [NSC 134137]	–	–	pKd ([3]; approximate, computed from the thermal shift, listed as 134137, read-out: KD): 6.39; pKd ([3]; approximate, computed from the thermal shift, listed as NSC134137, read-out: KD): ~6.39; ΔTm ([3]; thermal shift, 1 mM ligand, 10 μM protein, listed as 134137): 12.30 °C; ΔTm ([3]; thermal shift, 1 mM ligand, 10 μM protein, listed as NSC134137): ~ 12 °C
~5.66	0.1	9.70	5.48	COc1cc(N=Nc2ccccc2C(=O)O)ccc1O [NSC 153172]	–	–	ΔTm [3, 9]: 9.3
~5.88	0.004	10.66	5.36	O=C(O)Cc1ccc(N=Nc2c(O)c(C(=O)O)cc3ccccc23)cc1 [NSC 156563]	–	–	ΔTm [3, 9]: 10.2

Continued, compound first:

Structure (SMILES)	pKd [3, 6]	Q (quality score) ([3]; Table S4, protein 1000001)	ΔTm [3, 7]	ΔTm [2, 8]	pKd [1, 5]	Q (quality score) ([1]; Table S3)	also measured
COc1cc(NCc2ccccc2O)c2ncccc2c1 [NSC 130801]	–	–	–	–	~4.12	1.1	ΔTm ([1]; Table S3): 5.84
Nc1ccc(Oc2ccc(N)c([N+](=O)[O-])c2)cc1[N+](=O)[O-] [NSC 133351]	–	–	–	–	–	–	pKd ([2]; Table S4, protein 1000006, computed from the thermal shifts obtained, read-out: KD (Approx)): ~6.77; Q (quality score) ([2]; Table S4, protein 1000006, ratio ΔFmelt/ΔFtotal): 0.1; pKd ([2]; approximate, computed from the thermal shift, listed as 133351, read-out: KD): 6.77; pKd ([2]; approximate, computed from the thermal shift, listed as NSC133351, read-out: KD): ~6.77; ΔTm ([2]; thermal shift, 1 mM ligand, 10 μM protein): 16.76 °C
CC(C)=C(c1ccc(Cl)cc1)c1c(N)ncnc1N [NSC 157522]	–	–	–	–	~4.71	0.4	ΔTm ([1]; Table S3): 10.13
O=C(Nc1ccc(C(=O)O)c(O)c1)c1ccccc1 [NSC 159686]	–	–	–	–	–	0.6	pKd [1]: ~4.90
CCCCC(=O)OCC(=O)[C@]1(O)Cc2c(O)c3c(c(O)c2[C@@H](O[C@H]2C[C@H](NC(=O)C(F)(F)F)[C@H](O)[C@H](C)O2)C1)C(=O)c1c(OC)cccc1C3=O [NSC 246131, valrubicin, reference compound]	~5.83	0.2	10.31	5.62	–	–	ΔTm [3, 9]: 9.99; pKd ([3]; approximate, computed from the thermal shift, read-out: KD): ~5.82; IC50 [4]: 0.024 µg/mL (≈ 0.0332 µM)
N/C(CC(=O)Nc1cc(C(F)(F)F)ccc1Cl)=N\O [NSC 379536]	–	–	–	–	~4.54	0.3	ΔTm ([1]; Table S3): 8.86
Nc1nc2[nH]cc(CCc3ccc(C(=O)N[C@@H](CCC(=O)O)C(=O)O)cc3)c2c(=O)[nH]1 [NSC 698037, pemetrexed, reference compound]	–	–	–	–	–	1.3	–
C#CCC(Cc1cnc2nc(N)nc(N)c2n1)c1ccc(C(=O)N[C@@H](CCC(=O)O)C(=O)O)cc1 (stereo partly drawn) [NSC 754230, pralatrexate, reference compound]	–	–	–	–	~6.30	0.1	IC50 [4]: < 0.031 µg/mL
